Measured values as given in patent US6407058B1, “Modifying the permeability of physiological barriers” (Eisai Co., Limited, priority 1996, dated 2002).

Key:
Type in all cases: cell-based
p100/p120 [1] = assay: [32P]orthophosphate labelling and immunoprecipitation of p100/p120, MDCK I cells
Experimental: PDB induces dephosphorylation of p100 and p120. We investigated the possibility that the altered pattern of migration during electrophoresis of p100 and p120 following treatment with PDB is due to a change in the phosphorylation state of these proteins. MDCK I cells were metabolically labelled with [^32P]orthophosphate, treated with or without 200 nM PDB, and the p100 and p120 isolated by immunoprecipitation with antibodies recognising p100 and p120. This immunoprecipitation was carried out under buffer conditions which removed any associated proteins from p100 and p120. Protein was separated by electrophoresis, transferred to nitrocellulose filters, and exposed to film (Example 6A). The greater the amount of radioactive phosphate incorporated into the protein, the greater the signal on the film. […] To normalise for slight differences in protein loading, the same filters were then probed with p100/p120 antibody, and the level of p100/p120 protein determined by densitometry. Thus, the amount of phosphate per unit protein could be calculated. […]
MDCK I cells grown to confluence on 24 mm filters were incubated overnight in phosphate-free MEM, containing 0.5% serum (dialysed against 0.9% NaCl and 10 mM Hepes (pH 7.5)) and 100 μCi/ml [^32P]orthophosphate (Amersham). […] Filters were then probed with p120 antibodies, and the resulting ECL exposure scanned in the same way, to quantify protein loading.

p100/p120 [2] = assay: p100/p120 electrophoretic mobility, human umbilical vein endothelial cells (HUVECs); conditions: HUVEC, 5 minutes; histamine 10 μM, PDB 200 nM
E-cadherin [3] = assay: E-cadherin electrophoretic mobility by immunoblotting, MDCK I cells; conditions: 200 nM PDB, 30 minutes
Experimental: The migration of the cellular proteins p100 and p120 during electrophoresis is increased following PDB-treatment of MDCK I cells. PDB (phorbol-12,13-dibutyrate) is a pharmacological activator of protein kinase C. MDCK I cells are a kidney derived epithelial cell line, with particularly well developed junctional complexes. Cells treated for 30 minutes with either 200 nM PDB (+) or vehicle (−) were then lysed into Laemmli sample buffer, and separated by electrophoresis using 6% acrylamide gels. Proteins were transferred to nitrocellulose and probed with antibodies to p100/p120, and then reprobed with E-cadherin and paxillin antibodies.
Cell extracts or immunoprecipitates in SDS sample buffer were resolved by SDS-PAGE. The slab gels were then equilibrated in buffer comprising; 48 mM Tris, 39 mM glycine, 20% methanol and 0.03% SDS. Proteins were transferred to nitrocellulose filters (Hybond ECL; Amersham), which were Ponceau S stained and then blocked for 2 hours at 37° C. with 1% BSA in PBS containing 0.05% Tween-20. Filters were then probed with p120 antibody, at a dilution of 1:2500. […] The filters were then extensively washed in PBS/0.5% Tween-20, and immunoreactive bands were detected by enhanced chemiluminescence (Amersham) following the manufacturers instructions.

p100/p120 [4] = assay: p100/p120 electrophoretic mobility, human umbilical vein endothelial cells (HUVECs); conditions: HUVECs, 200 nM PDB, 30 minutes
Experimental: Cells were treated with or without 200 nM PDB for 30 minutes, lysed into Laemmli sample buffer, separated by electrophoresis and analysed by immunoblotting with antibodies recognising p100 and p120.
Human umbilical vein endothelial cells were incubated with histamine (His), pyrilamine (Pyr) or cimetidine (Cim) alone or in combination. As indicated, cells were preincubated in the absence or presence of cimetidine (10 μM) or pyrilamine (10 μM) for 10 minutes and then treated with or without histamine (10 μM) for a further 10 minutes. The cells were extracted and protein analysed by gel electrophoresis and immunoblotting. […] In the following examples, increase mobility of p100/p120 means decreased phosphorylation.
Whole cell lysates were prepared by rapidly replacing the culture medium in 6.5 mm with hot Laemmli sample buffer, followed by heating at 100° C. for 5 minutes. Immunoprecipitations were carried out at 4° C. Confluent monolayers of cells were washed rapidly with ice cold PBS (containing 0.9 mM CaCl2 and 0.5 mM MgCl2) before addition of 0.5 ml of the appropriate buffer. The filters were then gently scraped, and the lysate was removed and centrifuged at 14000× g. The supernatant was precleared with 10% (w/v) protein A-Sepharose in lysis buffer for 30-60 minutes. Appropriate primary antibodies were added to the lysate, and after 2-3 hours the immunecomplex was isolated, using rabbit anti-mouse secondary antibodies (Jackson Immunoresearch Labs Inc., West Grove, Pa.) and protein A-Sepharose. The beads were washed fives times with lysis buffer, and the bound protein was solubilized in SDS-sample buffer, followed by heating at 100° C. for 5 minutes.
Cell extracts or immunoprecipitates in SDS sample buffer were resolved by SDS-PAGE. The slab gels were then equilibrated in buffer comprising; 48 mM Tris, 39 mM glycine, 20% methanol and 0.03% SDS. Proteins were transferred to nitrocellulose filters (Hybond ECL; Amersham), which were Ponceau S stained and then blocked for 2 hours at 37° C. with 1% BSA in PBS containing 0.05% Tween-20. Filters were then probed with p120 antibody, at a dilution of 1:2500. After washing, filters were incubated with horseradish peroxidase conjugated anti-mouse antibody (Amersham), at a dilution of 1:5000. The filters were then extensively washed in PBS/0.5% Tween-20, and immunoreactive bands were detected by enhanced chemiluminescence (Amersham) following the manufacturers instructions.

E-cadherin [5] = assay: [32P] phosphorylation of immunoprecipitated E-cadherin, MDCK I cells; conditions: PDB-treated, same cell lysates

CCCC(=O)O[C@@H]1[C@@H](C)[C@@]2(O)[C@@H](C=C(CO)C[C@]3(O)C(=O)C(C)=C[C@@H]23)[C@@H]2C(C)(C)[C@]12OC(=O)CCC [PDB, Phorbol-12,13-dibutyrate]
phosphate content of p100/p120, of that in untreated cells (mean±s.d.) (p100/p120 [1]; 200 nM PDB 30 minutes, seven independent sets of experiments): 58±11% | phosphate in p100/p120 lost (p100/p120 [1]; 200 nM PDB, single experiment (FIG. 7B), normalised for protein): approximately 40% | mobility of p120 and p100 (p100/p120 [2]): increased mobility | effect on E-cadherin migration (E-cadherin [3]): no effect | mobility of p100 and p120 (p100/p120 [4]): the mobility of p100 and p120 increased | phosphorylation of E-cadherin (E-cadherin [5]): no change
